Measured values reported in patent US8778972B2, “5-pyridin-3-yl-1, 3-dihydro-indol-2-on derivatives and their use as modulators of aldosterone synthase and/or CYP11B1” (Novartis AG, priority 2009, dated 2014).

Tests used:
aldosterone synthase = molecular target: T1, aldosterone synthase (Homo sapiens, UniProt P19099); test: Aldosterone cell secretion in NCI-H295R cells (Ang II stimulated, SPA); type: cell-based
T1 construct: host or cells: NCI-H295R
T1 sequence (P19099 25-503): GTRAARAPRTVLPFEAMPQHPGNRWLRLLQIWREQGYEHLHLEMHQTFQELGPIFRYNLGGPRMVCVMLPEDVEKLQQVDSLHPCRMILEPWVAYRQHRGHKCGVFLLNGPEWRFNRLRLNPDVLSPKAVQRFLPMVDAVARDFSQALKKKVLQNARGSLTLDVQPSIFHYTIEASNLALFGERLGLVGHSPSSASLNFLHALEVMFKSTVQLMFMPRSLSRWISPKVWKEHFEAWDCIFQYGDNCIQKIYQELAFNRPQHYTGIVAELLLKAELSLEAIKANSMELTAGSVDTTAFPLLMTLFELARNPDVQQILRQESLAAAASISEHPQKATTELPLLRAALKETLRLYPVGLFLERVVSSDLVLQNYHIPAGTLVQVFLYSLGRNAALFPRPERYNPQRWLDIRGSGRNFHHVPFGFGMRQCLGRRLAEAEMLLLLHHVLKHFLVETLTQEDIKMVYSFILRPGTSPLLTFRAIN
Text: In particular, the aldosterone synthase inhibitory activities in vitro can be determined by the following assay.
Human adrenocortical carcinoma NCI-H295R cell line was obtained from American Type Culture Collection (Manassas, Va.). Insulin/transferrin/selenium (ITS)-A supplement (100×), DMEM/F-12, antibiotic/antimycotic (100×), and fetal bovine serum (FBS) were purchased from Invitrogen (Carlsbad, Calif.). Anti-mouse PVT scintillation proximity assay (SPA) beads and NBS 96-well plates were obtained from GE Health Sciences (Piscataway, N.J.) and Corning (Acton, Mass.), respectively. Solid black 96-well flat bottom plates were purchased from Costar (Corning, N.Y.). Aldosterone and angiotensin (Ang II) were purchased from Sigma (St. Louis, Mo.). D[1,2,6,7-^3H(N)]aldosterone was acquired from PerkinElmer (Boston, Mass.). Nu-serum was a product of BD Biosciences (Franklin Lakes, N.J.).
For in vitro measurement of aldosterone activity, human adrenocortical carcinoma NCI-H295R cells are seeded in NBS 96-well plates at a density of 25,000 cells/well in 100 μl of a growth medium containing DMEM/F12 supplemented with 10% FCS, 2.5% Nu-serum, 1 μg ITS/ml, and 1× antibiotic/antimycotic. The medium is changed after culturing for 3 days at 37° C. under an atmosphere of 5% CO2/95% air. On the following day, cells are rinsed with 100 μl of phosphate-buffered saline (PBS) and incubated with 100 μl of treatment medium containing 1 μM Ang II and a compound at different concentrations in quadruplicate wells at 37° C. for 24 hr. At the end of incubation, 50 μl of medium is withdrawn from each well for measurement of aldosterone production by an SPA using mouse anti-aldosterone monoclonal antibodies.
Measurement of aldosterone activity can also be performed using a 96-well plate format. Each test sample is incubated with 0.02 μCi of D-[1,2,6,7-^3H(N)]aldosterone and 0.3 μg of anti-aldosterone antibody in PBS containing 0.1% Triton X-100, 0.1% bovine serum albumin, and 12% glycerol in a total volume of 200 μl at room temperature for 1 hr. Anti-mouse PVT SPA beads (50 μl) are then added to each well and incubated overnight at room temperature prior to counting in a Microbeta plate counter. The amount of aldosterone in each sample is calculated by comparing with a standard curve generated using known quantities of the hormone.
(§1) Inhibition of the release of certain steroids can be used as a measure of the respective enzyme inhibition by the added test compounds. The dose-dependent inhibition of enzymic activity by a compound is calculated by means of an inhibition plot which is characterized by an IC50.
The IC50 values for active test compounds are ascertained by a simple linear regression analysis in order to construct inhibition plots without data weighting. The inhibition plot is calculated by fitting a 4-parameter logistic function to the raw data points using the least squares method. The equation of the 4-parameter logistic function is calculated as follows: Y=(d−a)/((1+(x/c)b))+a, where: a=minimum data level, b gradient, I c=ICED, d=maximum data level, x=inhibitor concentration.
The inhibition activity of aldosterone production can also be expressed in percentage inhibition (% inhibition) at a given concentration (e.g. % inhibition at 1 μM), which is the aldosterone level when the cell is treated with the given concentration of a compound of this invention (e.g. concentration of 1 μM) versus the aldosterone excretion when cell is free of the compound of the invention: % inhibition aldosterone production=[(Y′−X′)/Y′]×100 wherein X′ is the level of aldosterone when the cell is treated with a compound of Formula I and Y′ is the level of aldosterone when the cell is free of compound of Formula I.

CYP11B1 = molecular target: T2, CYP11B1 (Homo sapiens, UniProt P15538); test: Cortisol cell secretion in NCI-H295R cells (CYP11B1 activity); type: cell-based; settings: for inhibition at 1 µM: read-out: Cortisol cell secretion (% Inhib. @ 1 μM)
T2 construct: the NCI-H295R cells have Cyp11 B1 (steroid 11 β-hydroxylase); host or cells: NCI-H295R
T2 sequence (P15538 25-503): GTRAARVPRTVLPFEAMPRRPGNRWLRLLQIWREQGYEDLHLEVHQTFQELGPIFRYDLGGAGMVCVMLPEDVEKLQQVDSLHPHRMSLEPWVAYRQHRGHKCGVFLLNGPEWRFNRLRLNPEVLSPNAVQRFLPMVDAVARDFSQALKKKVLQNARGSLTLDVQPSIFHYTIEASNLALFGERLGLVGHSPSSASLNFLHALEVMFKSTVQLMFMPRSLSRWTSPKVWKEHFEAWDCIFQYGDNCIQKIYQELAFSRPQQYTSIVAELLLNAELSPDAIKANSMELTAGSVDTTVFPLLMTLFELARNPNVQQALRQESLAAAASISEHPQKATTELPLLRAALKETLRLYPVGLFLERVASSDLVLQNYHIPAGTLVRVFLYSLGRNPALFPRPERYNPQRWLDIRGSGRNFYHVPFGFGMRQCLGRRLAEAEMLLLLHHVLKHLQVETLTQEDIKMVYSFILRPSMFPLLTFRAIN
Text: The in vitro inhibitory activities for CYP11B1 can be determined by the following assay.
The cell line NCI-11295R was originally isolated from an adrenocortical carcinoma and has been characterized in the literature through the stimulable secretion of steroid hormones and the presence of the enzymes essential for steroidogenesis. Thus, the NCI-H295R cells have Cyp11 B1 (steroid 11 β-hydroxylase). The cells show the physiological property of zonally undifferentiated human foetal adrenocortical cells which, however, have the capacity to produce the steroid hormones which are formed in the three, phenotypically distinguishable zones in the adult adrenal cortex.
The NCI-H295R cells (American Type Culture Collection, ATCC, Rockville, Md., USA) are grown in Dulbeoco's Modified Eagle' Ham F-12 Medium (DME/F12), which has been supplemented with Ulroser SF Serum (Soprachem, Cergy-Saint-Christophe, France), insulin, transferrin, selenite (I-T-S, Becton Dickinson Biosciences, Franklin lakes, N.J., USA) and antibiotics in 75 cm^2 cell culture vessels at 37° C. and in a 95% air-5% carbon dioxide atmosphere. The cells are subsequently transferred for colony formation into a 24-well incubation vessel. They are cultivated there in DME/F12 medium, which is now supplemented with 0.1% bovine serum instead of Ultroser SF for 24 hours. The experiment is initiated by cultivating the cells in DME/F12 medium which is supplemented with 0.1% bovine serum albumin and test compound, in the presence or absence of cell stimulants, for 72 hours. The test substance is added in a concentration range from 0.2 nanomolar to 20 millimolar. Cell stimulants which can be used are angiotensin II ([…] or 100 nanomolar), potassium ions (16 millimolar), forskolin (10 micromolar) or a combination of two stimulants.
The excretion of aldosterone, cortisol, corticosterone and estradiol/estrone into the culture medium can be detected and quantified by commercially available, specific monoclonal antibodies in radioimmunoassays in accordance with the manufacturer's instructions.
as §1
The inhibition activity of cortisol production (CYP11B1 activity) can also be expressed in percentage inhibition (% inhibition) at a given concentration (e.g. % inhibition at 1 μM), which is the cortisol level when cell is treated with the given concentration of a compound of the invention (e.g. concentration of 1 versus the cortisol excretion when cell is free of the compound of the invention: % inhibition cortisol production=[(Y′−X′)/Y′]×100 wherein X′ is the level of cortisol when the cell is treated with a compound of Formula I; and Y′ is the level of cortisol when the cell is free of compound of Formula

Molecule	IC50 (aldosterone synthase)	Cortisol cell secretion (% Inhib. @ 1 μM) (CYP11B1)	inhibition at 1 µM (CYP11B1)
5-[5-(1-Hydroxy-1-methyl-ethyl)-pyridin-3-yl]-1-methyl-1,3-dihydro-indol-2-one [Example 16]	14 nM	87%	–
CC(C)C(=O)Nc1cncc(-c2ccc3c(c2)CC(=O)N3C)c1 [Example 9, N-[5-(1-Methyl-2-oxo-2,3-dihydro-1H-indol-5-yl)-pyridin-3-yl]-isobutyramide]	15 nM	89%	–
5-(4-Ethyl-pyridin-3-yl)-1-methyl-1,3-dihydro-indol-2-one [Example 6]	11 nM	83%	–
CCOc1cncc(-c2ccc3c(c2)CC(=O)N3C)c1 [Example 13]	20 nM	–	83.5%
CN1C(=O)Cc2cc(-c3cncc(F)c3)ccc21 [Example 2, 5-(5-Fluoro-pyridin-3-yl)-1-methyl-1,3-dihydro-indol-2-one]	5 nM	83%	–
5-(5-Ethoxy-pyridin-3-yl)-1-methyl-1,3-dihydro-indol-2-one [#13]	18 nM	51%	–
Cc1c(-c2cncc(Br)c2)ccc2c1CC(=O)N2C [Example 10]	4 nM	–	93%
Cn1c(=O)oc2cc(-c3cccnc3)ccc21 [Example 19]	472 nM	–	–
CN1C(=O)Cc2cc(-c3cncc(C4CC4)c3)ccc21 [Example 12]	2 nM	–	79%
Cn1c(=O)n(C)c2cc(-c3cccnc3)ccc21 [Example 18]	408 nM	–	–
CN1C(=O)Cc2c1ccc(-c1cccnc1)c2Cl [Example 4]	10 nM	–	85.5%
1-Isopropyl-3-[5-(1-methyl-2-oxo-2,3-dihydro-1H-indol-5-yl)-pyridin-3-ylmethyl]-urea [Example 15]	172 nM	82%	–
1-Methyl-5-(5-methyl-pyridin-3-yl)-1,3-dihydro-indol-2-one [Example 1]	91.5 nM	29.5%	–
CN1C(=O)Cc2cc(-c3cncc(C(N)=O)c3)ccc21 [Example 5, 5-(1-Methyl-2-oxo-2,3-dihydro-1H-indol-5-yl)-nicotinamide]	58 nM	78%	–
COc1c(-c2cccnc2)ccc2c1CC(=O)N2C [Example 8]	36 nM	–	84%
CN1C(=O)Cc2cc(-c3cncc(-c4cccnc4)c3)ccc21 [Example 14]	18 nM	–	60%
